Experimental findings from US11897867B2, “6-phenyl-4,5-dihydropyridazin-3(2H)-one derivatives as PDE3A and PDE3B inhibitors for treating cancer” (Bayer Aktiengesellschaft, priority 2017, dated 2024) are described below.

For test [1], the target named is T1, human full length PDE3B (Homo sapiens, UniProt Q13370).
T1 construct: Sf9 cells overexpressing human full length PDE3B; purchased SB Drug Discovery, UK; host or cells: Sf9 cells (cell extract)
The test is described as follows: PDE3B enzyme inhibition (3H-cAMP Scintillation Proximity Assay). The class given is biochemical. To be noted: PDE3B cell extract from Sf9 cells, 60 min room temperature; read-out: Target IC50 PDE3B IC50. In outline: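 SPA with Sf9 cell extract overexpressing human full-length PDE3B, diluted for linear kinetics and <70% substrate turnover, in 50 mM Tris/HCl pH 7.5, 8.3 mM MgCl2, 1.7 mM EDTA, 0.2% BSA. [8-3H]cAMP substrate, 60 min at room temperature, stopped with yttrium SPA beads. IC50 from sigmoidal fit of % activity vs log concentration.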
A general note: Scintillation proximity formats need no separation of bound from free tracer.

Test [2] has as its system NCI-H1734. The test can be described thus: Cell proliferation measurement (Cell Titer Glo), NCI-H1734. To be noted: Homo sapiens, NCI-H1734 cells, 72 h treatment, read-out: Anti-proliferation IC50 NCI-H1734. The class given is cell-based. The method, then: (§1) The antiproliferative activity of the compounds of the general formula (I) was examined in vitro in human cancer cells. For this purpose, 1000 cells (or 500 HeLa cells) were plated in 384-well plates with appropriate growth medium and incubated at 37° C. overnight. After 24 h, the cells on the test plate were treated with the compounds of the general formula (I) as and incubated at 37° C. for 72 h. The compounds were added to the cells by means of an HP D300 digital dispenser in a 10 (or more)-step dilution series. As control, the cells were treated with vehicle (DMSO at 0.3% final concentration). After 72 h, the cells were treated with 20 μl/well of 50% CTG solution in PBS (Promega Cell Titer Glo (catalogue #G755B and G756B)) and incubated at room temperature for 10 min, and luminescence was measured by means of a VICTOR V (Perkin Elmer), in order to determine cell viability at the end of treatment. The percentage effect on cell growth and the IC50 derived therefrom were determined for each test substance using the values from untreated wells (=percent viability). The IC50 values were calculated using a 4-parameter fit.
(In general: ATP-based viability assays read luminescence as a measure of living cells.)

In test [3] the test system is H4. The test is described as follows: Cell proliferation measurement (Cell Titer Glo), H4. The format is cell-based. To be noted: Homo sapiens, H4 cells, 72 h treatment, read-out: Anti-proliferation IC50 H4. The method, then: as §1
The target of test [4] is T2, human full length PDE3A (Homo sapiens, UniProt Q14432).
T2 construct: Sf9 cells overexpressing human full length PDE3A; purchased SB Drug Discovery, UK; host or cells: Sf9 cells (cell extract)
The test can be described thus: PDE3A enzyme inhibition (3H-cAMP Scintillation Proximity Assay). The class given is biochemical. To be noted: PDE3A cell extract from Sf9 cells, 60 min room temperature; read-out: Target IC50 PDE3A IC50. In outline: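 Sf9 cell extract overexpressing human full-length PDE3A, diluted for linear kinetics (<70% substrate used), in 50 mM Tris/HCl pH 7.5, 8.3 mM MgCl2, 1.7 mM EDTA, 0.2% BSA. [8-3H]cAMP substrate, 60 min at room temperature, yttrium SPA bead read-out; IC50 from sigmoidal curves of % activity.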

The subject of test [5] is HeLa cells (cervical cancer). The test is described as follows: Cell proliferation measurement (Cell Titer Glo), HeLa. The class given is cell-based. To be noted: Homo sapiens, 72 h treatment, read-out: Anti-proliferation IC50 HeLa (Cervical cancer). In outline:
(§2)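 Cells (1000/well; 500 for HeLa) plated overnight at 37 °C, then exposed to a ≥10-point compound dilution series for 72 h at 37 °C, DMSO 0.3% final as vehicle. Viability read by CellTiter-Glo luminescence; IC50 from 4-parameter fit against untreated wells.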

Test [6] concerns SK-MEL-3 (melanoma). The test is described as follows: Cell proliferation measurement (Cell Titer Glo), SK-MEL-3. The format is cell-based. To be noted: Homo sapiens, SK-MEL3, SK-MEL-3 cells, 72 h treatment, read-out: Anti-proliferation IC50 SK-MEL-3 (melanoma). Summed up:
as §2

In test [7] the test system is IGR-37 (melanoma). The test can be described thus: Cell proliferation measurement (Cell Titer Glo), IGR-37. Particulars: Homo sapiens, IGR-37 cells, 72 h treatment, read-out: Anti-proliferation IC50 IGR-37 (melanoma). The format is cell-based. As to the method: as §1

T1 sequence (Q13370 whole entry): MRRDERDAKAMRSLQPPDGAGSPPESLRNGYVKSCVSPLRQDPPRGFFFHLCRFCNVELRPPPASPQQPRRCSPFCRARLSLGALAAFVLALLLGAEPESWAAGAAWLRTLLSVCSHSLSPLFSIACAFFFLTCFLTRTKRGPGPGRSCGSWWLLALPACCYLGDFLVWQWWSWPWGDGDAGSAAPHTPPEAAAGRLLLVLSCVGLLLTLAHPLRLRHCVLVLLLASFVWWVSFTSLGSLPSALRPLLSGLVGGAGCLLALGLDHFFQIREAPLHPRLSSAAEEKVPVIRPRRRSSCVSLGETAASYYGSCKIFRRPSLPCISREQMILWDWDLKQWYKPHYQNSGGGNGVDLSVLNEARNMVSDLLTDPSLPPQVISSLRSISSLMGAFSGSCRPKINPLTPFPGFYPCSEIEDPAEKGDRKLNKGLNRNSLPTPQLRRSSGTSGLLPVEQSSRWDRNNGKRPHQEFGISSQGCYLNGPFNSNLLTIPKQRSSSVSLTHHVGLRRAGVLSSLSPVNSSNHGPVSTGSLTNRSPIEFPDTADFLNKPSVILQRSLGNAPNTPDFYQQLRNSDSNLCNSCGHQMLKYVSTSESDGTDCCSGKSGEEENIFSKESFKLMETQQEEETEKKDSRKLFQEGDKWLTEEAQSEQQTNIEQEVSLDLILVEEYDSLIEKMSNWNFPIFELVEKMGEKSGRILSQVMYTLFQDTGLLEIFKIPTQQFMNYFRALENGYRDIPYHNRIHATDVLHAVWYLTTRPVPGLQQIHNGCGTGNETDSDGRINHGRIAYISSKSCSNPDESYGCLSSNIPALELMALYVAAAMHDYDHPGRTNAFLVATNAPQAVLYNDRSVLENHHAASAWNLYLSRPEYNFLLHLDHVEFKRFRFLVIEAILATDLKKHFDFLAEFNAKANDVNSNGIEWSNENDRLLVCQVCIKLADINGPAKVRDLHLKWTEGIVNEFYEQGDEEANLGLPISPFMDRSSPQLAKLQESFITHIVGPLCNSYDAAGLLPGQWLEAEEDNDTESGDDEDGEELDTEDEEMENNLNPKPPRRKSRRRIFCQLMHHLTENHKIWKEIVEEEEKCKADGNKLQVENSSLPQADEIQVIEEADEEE
T2 sequence (Q14432 whole entry): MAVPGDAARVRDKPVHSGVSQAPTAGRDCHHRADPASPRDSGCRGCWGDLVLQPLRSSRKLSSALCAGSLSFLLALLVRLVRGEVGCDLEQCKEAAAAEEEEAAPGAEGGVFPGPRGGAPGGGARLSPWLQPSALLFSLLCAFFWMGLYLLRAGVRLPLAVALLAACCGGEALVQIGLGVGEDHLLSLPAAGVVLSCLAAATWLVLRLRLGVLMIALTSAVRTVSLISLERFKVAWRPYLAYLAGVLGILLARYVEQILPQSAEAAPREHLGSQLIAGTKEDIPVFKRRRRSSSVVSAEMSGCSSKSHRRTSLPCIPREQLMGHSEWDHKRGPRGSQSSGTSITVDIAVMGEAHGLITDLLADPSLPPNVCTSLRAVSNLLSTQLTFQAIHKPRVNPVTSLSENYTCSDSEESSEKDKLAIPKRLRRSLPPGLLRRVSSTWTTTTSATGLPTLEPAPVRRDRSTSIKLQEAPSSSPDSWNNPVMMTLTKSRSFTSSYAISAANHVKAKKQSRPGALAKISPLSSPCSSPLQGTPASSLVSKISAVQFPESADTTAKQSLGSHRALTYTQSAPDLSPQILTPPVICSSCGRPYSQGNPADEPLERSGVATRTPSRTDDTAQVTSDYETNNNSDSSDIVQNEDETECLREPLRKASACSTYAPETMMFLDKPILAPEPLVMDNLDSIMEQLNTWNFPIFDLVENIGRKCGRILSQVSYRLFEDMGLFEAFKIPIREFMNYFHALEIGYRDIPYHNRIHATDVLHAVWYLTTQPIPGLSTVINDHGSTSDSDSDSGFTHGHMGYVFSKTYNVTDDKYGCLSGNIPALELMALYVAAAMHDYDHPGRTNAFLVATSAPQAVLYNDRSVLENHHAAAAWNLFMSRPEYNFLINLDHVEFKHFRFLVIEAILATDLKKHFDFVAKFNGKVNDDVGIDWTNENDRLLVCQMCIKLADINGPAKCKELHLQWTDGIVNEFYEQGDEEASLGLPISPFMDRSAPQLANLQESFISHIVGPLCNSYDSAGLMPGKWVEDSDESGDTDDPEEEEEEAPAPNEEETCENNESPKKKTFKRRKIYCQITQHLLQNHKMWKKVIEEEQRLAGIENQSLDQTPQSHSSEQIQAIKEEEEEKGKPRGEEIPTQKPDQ

As to `Cc1cc(C2=NNC(=O)CC2)ccc1-c1ccc(F)cc1` [Example 3, 6-(4′-Fluoro-2-methylbiphenyl-4-yl)-4,5-dihydropyridazin-3(2H)-one], the IC50 in test [1] is 150 nM; in test [2], 27.7 nM; in test [3], 36.6 nM; in test [4], 190 nM; in test [5], 4.59 nM; in test [6], 8.42 nM.
As to `O=C1CCC(c2cc(F)c(N3CCC(F)(F)C3)c(F)c2)=NN1` [Example 13, 6-[4-(3,3-Difluoropyrrolidin-1-yl)-3,5-difluorophenyl]-4,5-dihydropyridazin-3(2H)-one], the IC50 is 250 nM in test [1]; 32 nM in test [2]; 41.1 nM in test [3]; 310 nM in test [4]; 5.59 nM in test [5]; 13.8 nM in test [6].
`O=C1CCC(c2cc(F)c(N3CC4CC4C3)c(F)c2)=NN1` (stereo not drawn) [Example 14, 6-[4-(3-Azabicyclo[3.1.0]hex-3-yl)-3,5-difluorophenyl]-4,5-dihydropyridazin-3(2H)-one]: the IC50 in test [1] is 77 nM; in test [2], 18.8 nM; in test [3], 30.9 nM; in test [4] it was 180 nM; in test [5], 2.16 nM; in test [6], 5.84 nM.
As to `O=C1CCC(c2cc(Cl)c(N3CCOCC3)c(Cl)c2)=NN1` [Example 124, 6-[3,5-dichloro-4-(morpholin-4-yl)phenyl]-4,5-dihydropyridazin-3(2H)-one], the IC50 in test [1] worked out at 73 nM; in test [7], 32.9 nM; in test [4] it was 59 nM; in test [5], 6.9 nM; in test [6] it was 16.8 nM.
Taken in the same sequence, the figures for `O=C1CCC(c2ccc(Cl)c(Cl)c2)=NN1` [Example 125, 6-(3,4-Dichlorophenyl)-4,5-dihydropyridazin-3(2H)-one] were 335 nM, 55.1 nM, 625 nM, 16 nM and 36.1 nM.
Taken in the same sequence, the figures for `O=C1CCC(c2ccc(-c3cnn(C(F)F)c3)c(C(F)(F)F)c2)=NN1` [Example 127, 6-{4-[1-(difluoromethyl)-1H-pyrazol-4-yl]-3-(trifluoromethyl)phenyl}-4,5-dihydropyridazin-3(2H)-one] were 77 nM, 5.37 nM, 73 nM, 1.78 nM and 3.64 nM.
Consider `O=C1CCC(c2ccc(-c3ccc(F)cc3)c(C(F)(F)F)c2)=NN1` [Example 128, 6-[4′-fluoro-2-(trifluoromethyl)[1,1′-biphenyl]-4-yl]-4,5-dihydropyridazin-3(2H)-one], for which the IC50 in test [1] was 210 nM; in test [7] it was 34.8 nM; in test [4], 240 nM; in test [5] it was 7.79 nM; in test [6] it was 15.2 nM.
As for `COCCNc1ccc(C2=NNC(=O)CC2)cc1C(F)(F)F` [Example 129, 6-{4-[(2-methoxyethyl)amino]-3-(trifluoromethyl)phenyl}-4,5-dihydropyridazin-3(2H)-one], the IC50 in test [1] worked out at 210 nM; in test [7] it was 4.77 nM; in test [4], 120 nM; in test [5] it was 2.14 nM; in test [6], 4.58 nM.
In the same order, the values of `O=C1CCC(c2ccc(-n3ccc(C(F)(F)F)n3)c(F)c2)=NN1` [Example 131, 6-{3-fluoro-4-[3-(trifluoromethyl)-1H-pyrazol-1-yl]phenyl}-4,5-dihydropyridazin-3(2H)-one] are 385 nM, 43.8 nM, 620 nM, 17.7 nM and 36.2 nM.
